Test results taken from ChEMBL document CHEMBL1151232, “First synthesis and determination of the absolute configuration of sulphostin, a novel inhibitor of dipeptidyl peptidase IV” (J Nat Prod, 2004).

Experiments:
[1] = target: Dipeptidyl peptidase 4 (Rattus norvegicus) (UniProt P14740); conditions: 0.5 ng/ml
Description: Inhibition of rat kidney DPP4 at 0.5 ng/ml

[2] = target: Dipeptidyl peptidase 4 (Rattus norvegicus) (UniProt P14740); conditions: 1 ng/ml
Description: Inhibition of rat kidney DPP4 at 1 ng/ml

[3] = target: Dipeptidyl peptidase 4 (Rattus norvegicus) (UniProt P14740); conditions: 2 ng/ml
Description: Inhibition of rat kidney DPP4 at 2 ng/ml

[4] = target: Dipeptidyl peptidase 4 (Rattus norvegicus) (UniProt P14740); conditions: 4 ng/ml
Description: Inhibition of rat kidney DPP4 at 4 ng/ml

[5] = target: Dipeptidyl peptidase 4 (Rattus norvegicus) (UniProt P14740); conditions: 8 ng/ml
Description: Inhibition of rat kidney DPP4 at 8 ng/ml

[6] = target: Dipeptidyl peptidase 4 (Rattus norvegicus) (UniProt P14740); conditions: 16 ng/ml
Description: Inhibition of rat kidney DPP4 at 16 ng/ml

[7] = target: Dipeptidyl peptidase 4 (Rattus norvegicus) (UniProt P14740); conditions: 32 ng/ml
Description: Inhibition of rat kidney DPP4 at 32 ng/ml

[8] = target: Dipeptidyl peptidase 4 (Rattus norvegicus) (UniProt P14740); conditions: 64 ng/ml
Description: Inhibition of rat kidney DPP4 at 64 ng/ml

Dipeptidyl peptidase 4 (Rattus norvegicus), sequence (P14740 whole entry, looked up): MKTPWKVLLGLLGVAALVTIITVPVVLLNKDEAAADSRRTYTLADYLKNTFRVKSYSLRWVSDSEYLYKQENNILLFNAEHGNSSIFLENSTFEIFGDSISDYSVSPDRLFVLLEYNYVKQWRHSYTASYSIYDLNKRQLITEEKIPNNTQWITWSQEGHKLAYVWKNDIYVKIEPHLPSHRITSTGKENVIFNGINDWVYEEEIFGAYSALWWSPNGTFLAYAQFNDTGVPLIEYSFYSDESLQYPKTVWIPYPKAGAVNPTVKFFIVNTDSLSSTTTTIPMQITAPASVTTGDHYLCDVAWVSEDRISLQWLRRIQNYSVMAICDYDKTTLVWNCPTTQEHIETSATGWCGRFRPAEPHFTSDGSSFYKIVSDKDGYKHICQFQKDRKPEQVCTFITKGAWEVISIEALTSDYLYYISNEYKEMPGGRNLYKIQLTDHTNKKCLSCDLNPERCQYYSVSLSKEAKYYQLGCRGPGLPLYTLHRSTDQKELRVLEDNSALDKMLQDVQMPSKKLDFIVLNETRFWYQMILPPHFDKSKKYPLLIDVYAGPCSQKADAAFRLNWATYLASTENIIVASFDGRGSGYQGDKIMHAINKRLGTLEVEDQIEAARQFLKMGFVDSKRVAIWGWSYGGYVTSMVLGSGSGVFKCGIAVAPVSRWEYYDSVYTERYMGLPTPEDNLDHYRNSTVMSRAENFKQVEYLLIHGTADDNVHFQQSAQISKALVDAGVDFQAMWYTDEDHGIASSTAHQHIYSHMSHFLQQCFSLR

SMILES: N[C@H]1CCCN([P@@](N)(=O)NS(=O)(=O)O)C1=O
- inhibition [1]: 15.9%
- inhibition [2]: 20.2%
- inhibition [3]: 30.6%
- inhibition [4]: 41.9%
- inhibition [5]: 54.4%
- inhibition [6]: 66.9%
- inhibition [7]: 77.4%
- inhibition [8]: 84.5%
